Experimental data published in ChEMBL document CHEMBL1141459, “Kv7 (KCNQ) channel modulators and neuropathic pain” (J Med Chem, 2007).

Key:
[1] = test system: Rattus norvegicus; test: Analgesic activity in SNL nerve injury in iv dosed rat model; format: functional; settings: for minimal effective dose: Rattus norvegicus, iv, read-out: MED
[2] = test system: Rattus norvegicus; test: Analgesic activity in carrageenan model in po dosed rat model; format: functional; settings: read-out: MED
[3] = test system: Rattus norvegicus; test: Analgesic activity in SNL nerve injury in po dosed rat model; format: functional
[4] = species on record: Rattus norvegicus; test: Analgesic activity in streptozotocin-induced diabetic rat model of pain; format: functional; settings: read-out: MED
[5] = Therapeutic index, ratio of ED50 in rotor rod test in rat to ED50 in rat spinal nerve ligation model of neuropathic pain; format: organism-based; settings: in vivo, read-out: TI
[6] = Activity at Kv.7 channel expressed in cloned CHO cells by patch clamp method; format: cell-based
[7] = test system: Rattus norvegicus; test: Analgesic activity in CCI and SNL nerve injury in po dosed rat model of pain; format: functional; settings: read-out: MED
[8] = species on record: Rattus norvegicus; test: Toxicity in rat by rotarod test; format: organism-based; settings: in vivo
[9] = test system: Rattus norvegicus; test: Analgesic activity in formalin-induced pain hypersensitivity in po dosed rat; format: functional
[10] = test system: Rattus norvegicus; test: Analgesic activity in formalin-induced pain hypersensitivity in ip dosed rat; format: functional
[11] = target: Potassium voltage-gated channel subfamily KQT member 2 (Homo sapiens, UniProt O43526); test: Activity at Kv 7.2 channel expressed in cloned CHO cells by [86Rb] efflux assay; format: cell-based
Sequence of Potassium voltage-gated channel subfamily KQT member 2 (O43526 whole entry): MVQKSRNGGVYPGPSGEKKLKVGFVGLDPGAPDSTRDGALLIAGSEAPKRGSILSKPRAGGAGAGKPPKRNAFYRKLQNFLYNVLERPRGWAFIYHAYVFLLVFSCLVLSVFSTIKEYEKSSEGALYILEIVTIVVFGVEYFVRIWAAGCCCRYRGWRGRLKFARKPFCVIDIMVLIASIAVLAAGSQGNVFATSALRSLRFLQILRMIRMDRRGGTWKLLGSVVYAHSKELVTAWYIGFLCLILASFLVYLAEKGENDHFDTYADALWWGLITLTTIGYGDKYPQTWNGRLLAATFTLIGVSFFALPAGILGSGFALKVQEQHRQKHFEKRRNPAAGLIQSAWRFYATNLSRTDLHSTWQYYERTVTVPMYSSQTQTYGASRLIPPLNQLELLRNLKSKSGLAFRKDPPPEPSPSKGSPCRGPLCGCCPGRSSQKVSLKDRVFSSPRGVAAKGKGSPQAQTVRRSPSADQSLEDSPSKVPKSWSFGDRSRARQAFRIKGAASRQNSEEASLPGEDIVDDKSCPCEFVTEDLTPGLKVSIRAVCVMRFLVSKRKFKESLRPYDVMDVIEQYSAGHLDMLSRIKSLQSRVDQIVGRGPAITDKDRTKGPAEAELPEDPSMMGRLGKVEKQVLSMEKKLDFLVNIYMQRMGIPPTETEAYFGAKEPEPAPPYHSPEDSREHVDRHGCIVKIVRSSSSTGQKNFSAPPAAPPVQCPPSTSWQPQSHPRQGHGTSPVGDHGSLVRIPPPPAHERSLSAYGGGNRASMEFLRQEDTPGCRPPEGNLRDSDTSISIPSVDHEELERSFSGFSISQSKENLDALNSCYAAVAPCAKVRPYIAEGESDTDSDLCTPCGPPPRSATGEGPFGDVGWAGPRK

[12] = Therapeutic index, ratio of ED50 in rotor rod test in rat to ED50 in rat kindling model of epileptic seizures; settings: read-out: TI

With `C[C@H](NC(=O)/C=C/c1ccccc1F)c1cccc(Oc2cccnc2)c1` the minimal effective dose [1] was 10 mg/kg.
Compound `O=C(Nc1ccc(Cl)nc1)c1ccc(F)c(F)c1` has a minimal effective dose [2] of 30 mg/kg and an ED50 [3] of 25 mg/kg.
Compound `CC(NC(=O)c1sc(-c2ccccc2F)nc1C(F)(F)F)c1cccc(-c2cccc(OC(F)(F)F)c2)c1` (stereo unspecified) has an MED [1] of 10 mg/kg and a minimal effective dose [1] of 10 mg/kg.
`C[C@H](NC(=O)/C=C/c1ccc(F)cc1)c1ccc(F)c(N2CCOCC2)c1` gave a minimal effective dose [4] of 10 mg/kg and a minimal effective dose [1] of 10 mg/kg.
In the case of `CCOC(=O)Nc1ccc(NCc2ccc(F)cc2)cc1N` [EZOGABINE], the selectivity ratio [5] is reported as 1.6, the EC50 [6] is reported as 1 µM and the minimal effective dose [7] is reported as 10 mg/kg. For the same compound, the ED50 [8] was 40 mg/kg, the ED50 [9] was 47.6 mg/kg and the ED50 [10] was 6.6 mg/kg. For the same compound, the EC50 [11] was less than 0.15 µM and the selectivity ratio [12] was 4.
Compound `C[C@H](NC(=O)/C=C/c1ccccc1F)c1cccc(-n2cccn2)c1` has a minimal effective dose [1] of 10 mg/kg.
